Results reported in patent US20260193278A1, “NOVEL PHTHALOCYANINE COMPOUNDS AND THE USE THEREOF FOR THE TREATMENT OF DISEASES” (RHODES UNIVERSITY, priority 2022, published 2026).

Assays:
Type in all cases: cell-based
S. aureus [1] = experiment: Dark toxicity against S. aureus, concentration study at 0 min (CFU counting); conditions: for Staph log CFU/ml (logarithmic reduction value) / Staph μM (concentration corresponding to the logarithmic reduction): in the dark, at 0 min; for Staph log CFU/ml (logarithmic reduction value): at the concentration of the μM column; for Staph μM (concentration corresponding to the logarithmic reduction): range tested 0-10 μM
Procedure: (§1) 500 μM stock solutions of the samples were prepared in ultra-pure water (5% DMSO) and used at different concentrations in the biological assays.
(§2) Two bacterial strains were used for the PACT studies; S. aureus as a gram-(+) bacterium and E. coli as a gram-(−) negative bacterium. Stock cultures were grown aerobically in 6 mL of nutrient broth incubated at 37° C. on a rotary shaker (~200 rpm) to obtain bacteria cultures. The incubation was maintained until the optical density of the culture at 600 nm was determined to be between 0.6 and 0.8. The resulting bacterial solution was centrifuged to remove the broth, and bacterial cells were washed three times with PBS. The solution of the bacteria was prepared by diluting with PBS to obtain […] bacteria solutions corresponding to ~10^9 and ~10^8 colony forming units (CFU)/mL, respectively.
(§3) The bacteria/photosensitizer mixtures were incubated in an oven equipped with a shaker for 30 min in the dark at 37° C. before plating. 100 μL of solution was taken from the suspension and was immediately inoculated on agar plates to determine the activity at 0 min without treatment. The number of colonies was then counted on each plate after 18 h of incubation at 37° C. Control treatments were performed in the absence of photosensitizer. All experiments were carried out three times. The data for CFU/mL were converted to the logarithmic form.

[2] = tested on: MCF-7 (human breast adenocarcinoma) cells; experiment: In vitro dark cytotoxicity, MCF-7 cells (anticancer studies); conditions: MCF-7, dark; for Min. Death conc. / Cell death: 24 h; for Cell death: at the Min. Death conc.
Procedure: MCF-7 (human breast adenocarcinoma) cells were cultured in Dulbecco's modified Eagle's medium-10% fetal bovine serum (DMEM-FBS) and PSA (penicillin/streptomycin/Amphotericin B) at 37° C. in an incubator (5% CO2) in 75 cm^2 vented flasks. The cultures were grown as a monolayer. The growth cells were transferred to well plates by trypsinizing with 0.25% trypsin-EDTA. The Pc stock concentrations were prepared by separately dissolving them in DMSO (1%) and diluting in water and the Pc gradient concentration was prepared by taking known aliquots from the stock and finally made up to marked volume with supplemented media with phenol red.
It was studied from […] both in the dark. 100 μL each of the newly prepared gradient Pcs concentration of 0 μg/mL (control), 5 μg/mL, 10 μg/mL, 20 μg/mL, 40 μg/mL, 60 μg/mL 80 μg/mL, 100 μg/mL and 120 μg/mL were administered on the incubated seeded cells. The 96 well cell culture plates containing the cells and the Pcs were incubated at 37° C. and 5% CO2 in the dark for 24 h. After 24 h treatment, the wells were rinsed with 100 μL DPBS. Cell survival was expressed as percentage of control cells (cells without Pcs). Post treatment cell viability was measured using the cell proliferation […] reagent (WST-1 assay) on a Synergy 2 multi-mode microplate reader (BioTek®) at a wavelength of 450 nm according to the following equation 1.

S. aureus [3] = experiment: Photodynamic inactivation of S. aureus (with irradiation); conditions: after irradiation 20 min at 0.5, 1 and 2.5 μM
Procedure: as §2
as §3, with “Pc solutions were prepared by dissolving in water containing 5% DMSO and applied over the range of 0-10 μM for S. aureus and 0-15 μM for E. coli. The bacteria/photosensitizer” for “The bacteria/photosensitizer”

E. coli = experiment: Dark toxicity against E. coli, concentration study at 0 min (CFU counting); conditions: in the dark; for Ecoli log CFU/ml (logarithmic reduction value): at the concentration of the μM column; for Ecoli μM (concentration corresponding to the logarithmic reduction): range tested 0-15 μM
Procedure: as §1, §2, §3

| Compound | log reduction (dark toxicity) (S. aureus [1]; dark, 0 min, at 5 and 10 μM) | Staph log CFU/ml (logarithmic reduction value) (S. aureus [1]) [log CFU/ml] | Staph μM (concentration corresponding to the logarithmic reduction) (S. aureus [1]) [μM] | optimal concentration to kill the cancer cells [2] [µM] | Min. Death conc. [2] [µM] | Cell death [2] [%] | cancer cells killed at the optimal concentration ([2]; at the optimal concentration) [%] | log reduction (photocytotoxicity) (S. aureus [3]) | Ecoli log CFU/ml (logarithmic reduction value) (E. coli) [log CFU/ml] | Ecoli μM (concentration corresponding to the logarithmic reduction) (E. coli) [μM] |
| --- | --- | --- | --- | --- | --- | --- | --- | --- | --- | --- |
| C[n+]1c(-c2ccc(Oc3ccc4c(c3)C3=Nc5c6ccc(Oc7ccc(-c8[nH]c9cc(Cl)cc(Cl)c9[n+]8C)cc7)cc6c6[n]5[Zn][n]5c(c7ccc(Oc8ccc(-c9[nH]c%10cc(Cl)cc(Cl)c%10[n+]9C)cc8)cc7c5=NC5=NC(=N6)c6cc(Oc7ccc(-c8[nH]c9cc(Cl)cc(Cl)c9[n+]8C)cc7)ccc65)=NC4=N3)cc2)[nH]c2cc(Cl)cc(Cl)c21.[I-].[I-].[I-].[I-] [Compound 193] | 9.63 | 9.61 | 4 | 40 | 40 | 72.7 | 72.7 | 9.63 | 8.79 | 1 |
| C[n+]1c(-c2ccc(Oc3ccc4c(c3)C3=Nc5c6ccc(Oc7ccc(-c8[nH]c9cc(Br)cc(Cl)c9[n+]8C)cc7)cc6c6[n]5[Co][n]5c(c7ccc(Oc8ccc(-c9[nH]c%10cc(Br)cc(Cl)c%10[n+]9C)cc8)cc7c5=NC5=NC(=N6)c6cc(Oc7ccc(-c8[nH]c9cc(Br)cc(Cl)c9[n+]8C)cc7)ccc65)=NC4=N3)cc2)[nH]c2cc(Br)cc(Cl)c21.[I-].[I-].[I-].[I-] [Compound 234] | – | 9.25 | 0.5 | – | 60 | 90.4 | – | – | 8.79 | 2.5 |
| C[n+]1c(-c2ccc(Oc3ccc4c(c3)C3=Nc5c6ccc(Oc7ccc(-c8[nH]c9cc(Br)cc(Cl)c9[n+]8C)cc7)cc6c6[n]5[Cu][n]5c(c7ccc(Oc8ccc(-c9[nH]c%10cc(Br)cc(Cl)c%10[n+]9C)cc8)cc7c5=NC5=NC(=N6)c6cc(Oc7ccc(-c8[nH]c9cc(Br)cc(Cl)c9[n+]8C)cc7)ccc65)=NC4=N3)cc2)[nH]c2cc(Br)cc(Cl)c21.[I-].[I-].[I-].[I-] [Compound 235] | – | 9.25 | 10 | – | 10 | 34.8 | – | – | 8.79 | 12.5 |
| C[n+]1c(-c2ccc(Oc3ccc4c(c3)C3=Nc5c6ccc(Oc7ccc(-c8[nH]c9ccc(Cl)cc9[n+]8C)cc7)cc6c6[n]5[Zn][n]5c(c7ccc(Oc8ccc(-c9[nH]c%10ccc(Cl)cc%10[n+]9C)cc8)cc7c5=NC5=NC(=N6)c6cc(Oc7ccc(-c8[nH]c9ccc(Cl)cc9[n+]8C)cc7)ccc65)=NC4=N3)cc2)[nH]c2ccc(Cl)cc21.[I-].[I-].[I-].[I-] [Compound 242] | – | 9.24 | 0.5 | – | 120 | 49.8 | – | – | 8.79 | 2.5 |
| C[n+]1c(-c2ccc(Oc3ccc4c(c3)C3=Nc5c6ccc(Oc7ccc(-c8[nH]c9ccc(Cl)cc9[n+]8C)cc7)cc6c6[n]5[Co][n]5c(c7ccc(Oc8ccc(-c9[nH]c%10ccc(Cl)cc%10[n+]9C)cc8)cc7c5=NC5=NC(=N6)c6cc(Oc7ccc(-c8[nH]c9ccc(Cl)cc9[n+]8C)cc7)ccc65)=NC4=N3)cc2)[nH]c2ccc(Cl)cc21.[I-].[I-].[I-].[I-] [Compound 243] | – | 9.24 | 4 | – | 120 | 62.4 | – | – | 8.79 | 2.5 |
| C[n+]1c(-c2ccc(Oc3ccc4c(c3)C3=Nc5c6ccc(Oc7ccc(-c8[nH]c9ccc(Cl)cc9[n+]8C)cc7)cc6c6[n]5[Cu][n]5c(c7ccc(Oc8ccc(-c9[nH]c%10ccc(Cl)cc%10[n+]9C)cc8)cc7c5=NC5=NC(=N6)c6cc(Oc7ccc(-c8[nH]c9ccc(Cl)cc9[n+]8C)cc7)ccc65)=NC4=N3)cc2)[nH]c2ccc(Cl)cc21.[I-].[I-].[I-].[I-] [Compound 244] | – | 9.24 | 10 | – | 80 | 90.8 | – | – | 8.79 | 15 |
| Tetrakis [4-(4-(5-bromo-1H-benzo[d]imidazol-2-yl)phenoxy phthalocyaninato] copper(II) tetraiodide [Compound 219] | – | 9.15 | 10 | – | 10 | 36.9 | – | – | 8.78 | 12.5 |
| Tetrakis [4-(4-(5-bromo-1H-benzo[d]imidazol-2-yl)phenoxy phthalocyaninato] zinc(II) tetraiodide [Compound 217] | – | 9.15 | 1 | – | 5 | 40.1 | – | – | 8.78 | 5 |
| Tetrakis [4-(4-(5-bromo-1H-benzo[d]imidazol-2-yl)phenoxy phthalocyaninato] zinc(II) tetraiodide [Compound 218] | – | 9.15 | 0.5 | – | 10 | 56.6 | – | – | 8.78 | 1 |
